Tests used:
[1] = human, serum
[2] = human
[3] = human; remark: listed apart in the source
[4] = Times to onset, minimal and maximal, observed in the indexed observations. [column 'DELAI' in source]; details: human
[5] = Presence of at least one case with successful reintroduction. [column 'REINT' in source]; details: human
[6] = Comments (NB not yet translated). [column 'COMMENTAIRES' in source]; details: human
[7] = Proposed mechanism(s) of liver damage. [column 'MEC' in source]; details: human
[8] = human; remark: listed apart in the source
[9] = human; remark: listed apart in the source
[10] = Highest frequency of moderate liver toxicity observed during clinical trials, expressed as a percentage. [column '% BIOL' in source]; details: human
[11] = human; remark: listed apart in the source
[12] = human; remark: listed apart in the source
[13] = human; remark: listed apart in the source
[14] = human; remark: listed apart in the source
[15] = Highest frequency of acute liver toxicity observed during clinical trials, expressed as a percentage. [column '% AIGUE' in source]; details: human
[16] = human, serum; remark: listed apart in the source
[17] = human; remark: listed apart in the source
[18] = human, serum, 4383 h
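Wherever Hepatotoxicity (association with vascular disease) is given: count of indexed literature references reporting vascular liver injury in humans, e.g. peliosis hepatitis, hepatic veno-occlusive disease or Budd-Chiari syndrome.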
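Wherever Hepatotoxicity (benign tumour) is given: value is a count of indexed literature references citing a benign tumour confirmed by histopathology.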
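Wherever Hepatotoxicity (choleostasis) is given: human cholestatic liver injury, shown by histopathology or by peak ALT or AST elevation over alkaline phosphatase ratio below 2, value counts indexed literature reports.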
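Wherever Hepatotoxicity (chronic liver disease) is given: chronic liver injury confirmed by histopathology or persistently raised serum aminotransferase activity beyond 6 months, value given as the count of indexed literature references.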
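Wherever Hepatotoxicity (cirrhosis) is given: value is a count of indexed literature references reporting cirrhosis confirmed by histopathology.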
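Wherever Hepatotoxicity (cytolytic) is given: human cytolytic liver injury, shown by histopathology or by a ratio above 5 of peak ALT or AST elevation to alkaline phosphatase elevation, value counts indexed references.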
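Wherever Hepatotoxicity (granulomatous hepatitis) is given: value is a count of indexed literature references reporting granulomatous liver disease confirmed by histopathology.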
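Wherever Hepatotoxicity (malignant tumour) is given: malignant tumour confirmed by histopathology, value gives the count of indexed literature references reporting it.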
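Wherever Hepatotoxicity (severe hepatitis) is given: human clinical data: severe hepatitis, meaning potentially life-threatening liver failure or clinically observed cases, the value counts how many indexed literature references report it.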
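Wherever Hepatotoxicity (steatosis) is given: steatosis confirmed by histopathology, value is the count of indexed references.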

Compound	Hepatotoxicity (acute) [1]	Hepatotoxicity (benign tumour) [2]	Hepatotoxicity (severe hepatitis) [3]	Hepatotoxicity (time to onset) [4]	Hepatotoxicity (successful reintroduction) [5]	Hepatotoxicity (comment) [6]	Hepatotoxicity (mechanism) [7]	Hepatotoxicity (malignant tumour) [8]	Hepatotoxicity (cirrhosis) [9]	Hepatotoxicity (moderate) [10]	Hepatotoxicity (association with vascular disease) [11]	Hepatotoxicity (cytolytic) [12]	Hepatotoxicity (granulomatous hepatitis) [13]	Hepatotoxicity (choleostasis) [14]	Hepatotoxicity (acute) [15]	Hepatotoxicity (moderate) [16]	Hepatotoxicity (steatosis) [17]	Hepatotoxicity (chronic liver disease) [18]	also measured
O=C(O)c1cccs1 [THIOPHENE CARBOXYLIC ACID]	3	0	0	3 days - 3 weeks	yes	AC_ANTI-ML	Allergic	0	0	0%	0	3	0	0	0%	0	0	0	
O=C(O)c1cc(/N=N/c2ccc(S(=O)(=O)Nc3ccccn3)cc2)ccc1O [SULFASALAZINE]	50	0	11	1 day - 1 year	yes	DUCTOPENIE RC/COTRIMOXAZOLE/MESALAZINE/OLSALAZINE	Allergic	0	0	26.7%	0	31	11	14	5.7%	44	1	2	
INTERFERON ALFA-2B	13	0	7	1 week - 1 year	yes	AGGRAVATION_CBP/HEPATITE_AUTOIMMUNE/HVB/HVC_CHRONIQUE CHOLANGITE	Dose-dependant	0	0	87.5%	0	8	3	2	0%	52	0	0	
CC1=C(/C=C/C(C)=C/C=C/C(C)=C/CO)C(C)(C)CCC1.O=C(O)Cc1cc(I)c(Oc2ccc(O)c(I)c2)c(I)c1	7	0		2 weeks - 9 years	yes	AC_ANTI-N		0	1		0					0	0	1	Hepatotoxicity (severe hepatitis) ([3]; Liver): 1; Hepatotoxicity (mechanism) ([7]; Liver): Allergic; Hepatotoxicity (moderate) ([10]; Liver): 0%; Hepatotoxicity (cytolytic) ([12]; Liver): 7; Hepatotoxicity (granulomatous hepatitis) ([13]; Liver): 0; Hepatotoxicity (choleostasis) ([14]; Liver): 1; Hepatotoxicity (acute) ([15]; Liver): 0%
CC1(C)S[C@@H]2[C@H](NC(=O)[C@H](N)c3ccccc3)C(=O)N2[C@H]1C(=O)O [AMPICILLIN]	9	0	1	2 days - 2 weeks	yes	#CBP CHOLECYSTITE_ACALCULEUSE	Allergic	0	0	20%	0	3	0	4	0%	7	0	0	

Source: ChEMBL document CHEMBL3137667, “[Drug-induced liver injury; fourteenth updated edition of the bibliographic database of liver injuries and related drugs]” (Gastroenterol Clin Biol, 2004)
